Laboratory results as given in US20260374766A1, “METHODS FOR TREATING CANCER” (Antares Therapeutics, Inc., priority 2022, published 2026).
Like-named read-outs stand apart in the source and are kept apart here.

Experiments:
NUGC3 p53 Y220C = assay: Cell Proliferation Assay (CellTiter-Glo, CTG), NUGC3 p53 Y220C; type: cell-based; details: Homo sapiens, NUGC-3, 120 h, 5 days
How it was run: (§1)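 Tet-One inducible p53 Y220C or R273H constructs were stably introduced into NCI-H1299 by lentiviral transduction; NUGC3 was used as is. Cells (250-500 per well) were exposed to compound for 5 days, then CellTiter-Glo was added for 10 min at room temperature and IC50 was calculated from luminescence.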

H1299 p53 R273H = assay: Cell Proliferation Assay (CellTiter-Glo, CTG), H1299 p53 R273H (NClH1299-inducible p53 R273H); type: cell-based; details: Homo sapiens, NCI-H1299, 120 h, 5 days
How it was run: as §1

H1299 p53 Y220C = assay: Cell Proliferation Assay (CellTiter-Glo, CTG), H1299 p53 Y220C (NClH1299-inducible p53 Y220C); type: cell-based; details: Homo sapiens, NCI-H1299, 120 h, 5 days
How it was run: as §1

[1] = biological target: T1, p53 Y220C mutant protein (amino acid residues 94-293) (Homo sapiens, UniProt P04637, Y220C); assay: Surface Plasmon Resonance (SPR) assay, Kd_kinetic; type: binding; details: SPR, p53 Y220C, read-out: SPR P53 Y220C KD kinetic
T1 construct: p53 Y220C mutant protein (amino acid residues 94-293)
T1 sequence (P04637 94-293, stated change not applied): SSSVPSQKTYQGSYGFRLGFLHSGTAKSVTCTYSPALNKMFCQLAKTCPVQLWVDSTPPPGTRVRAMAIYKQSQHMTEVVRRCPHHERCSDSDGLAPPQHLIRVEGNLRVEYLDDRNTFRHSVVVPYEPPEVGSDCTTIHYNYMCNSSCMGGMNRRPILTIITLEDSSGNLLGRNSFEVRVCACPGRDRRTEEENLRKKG
How it was run: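 Kinetic dissociation constants derived by 1:1 model fit of SPR data acquired at 16 or 20 °C, pH 7.5 Tris/NaCl running buffer with 1% DMSO.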

p53 Y220C = p53 Y220C (Homo sapiens, UniProt P04637, Y220C); assay: Luciferase Reporter Assay (Luc), p53 response element, NClH1299 cells with inducible p53 Y220C; type: cell-based; details: 6 hour; for AC50: read-out: Luc P53 Y220C AC50
How it was run: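 Cells were seeded at 5,000 per well and induced with 0.5 ug/mL doxycycline for 24 hours, then exposed to compound for 6 hours. One-Glo reagent was added, plates shaken 5 minutes at room temperature, and luminescence read immediately.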

[2] = NClH1299-inducible p53 R273H cells, CellTiter-Glo
[3] = NClH1299-inducible p53 Y220C cells, CellTiter-Glo
[4] = AC50, luciferase reporter, NClH1299 inducible p53 Y220C
[5] = Emax, luciferase reporter, NClH1299 inducible p53 Y220C
[6] = luciferase reporter, NClH1299 inducible p53 Y220C, 10 uM tool compound as positive control
[7] = luciferase reporter, NClH1299 inducible p53 Y220C
[8] = NClH1299-inducible p53 R273H cells
[9] = NClH1299-inducible p53 Y220C cells
[10] = AC50, NClH1299 cells with inducible p53 Y220C
[11] = Emax, NClH1299 cells with inducible p53 Y220C, 10 uM tool compound as positive control

Compound | IC50 (NUGC3 p53 Y220C; NUGC3 cells, CellTiter-Glo) | IC50 (H1299 p53 R273H; [2]) | IC50 (H1299 p53 Y220C; [3]) | Kd [1] | AC50 (p53 Y220C; [4]) | Emax (p53 Y220C; [5]) | IC50 (NUGC3 p53 Y220C; CellTiter-Glo, NUGC3 p53 Y220C) | IC50 (H1299 p53 R273H; CellTiter-Glo, H1299 p53 R273H) | IC50 (H1299 p53 Y220C; CellTiter-Glo, H1299 p53 Y220C) | Kd ([1]; kinetic KD) | Emax (p53 Y220C; [6]) | AC50 (p53 Y220C; [7]) | IC50 (NUGC3 p53 Y220C; NUGC3 cells) | IC50 (H1299 p53 R273H; [8]) | IC50 (H1299 p53 Y220C; [9]) | AC50 (p53 Y220C; [10]) | Emax (p53 Y220C; [11])
CNC(=O)c1ccc(OC)c(NCC#Cc2cc3c(N[C@@H]4CCN(C[C@H](C)O)C[C@@H]4F)nccn3c2SC(F)(F)F)c1 [Example 448] | < 750 nM | 5000 to 8000 nM | < 750 nM | < 10 nM | < 750 nM | > 90% |  |  |  |  |  |  |  |  |  |  | 
CNC(=O)c1ccc(NCC#Cc2nn3c(N[C@@H]4CCN(C)C[C@@H]4F)nccc3c2SC(F)(F)F)c(OC)c1 [Example 214, 4-{[3-(7-{[(3S,4R)-3-fluoro-1-methylpiperidin-4-yl]amino}-3-[(trifluoromethyl)sulfanyl]pyrazolo[1,5-c]pyrimidin-2-yl)prop-2-yn-1-yl]amino}-3-methoxy-N-methylbenzamide] |  |  |  |  |  |  | < 750 nM | ≥ 10000 nM | < 750 nM | < 10 nM | > 90% | < 750 nM |  |  |  |  | 
CNC(=O)c1ccc(NCC#Cc2cc3c(N[C@@H]4CCNC[C@@H]4F)cccn3c2SC(F)(F)F)c(OC)n1 [Example 488] |  |  |  | < 10 nM |  |  |  |  |  |  |  |  | < 750 nM | 5000 to 8000 nM | < 750 nM | < 750 nM | > 90%
COc1cc(C(=O)NC[C@H](C)O)ccc1NCC#Cc1cc2c(N[C@@H]3CCN(C)C[C@@H]3F)cccn2c1SC(F)(F)F [Example 475, 4-{[3-(8-{[(3S,4R)-3-fluoro-1-methylpiperidin-4-yl]amino}-3-[(trifluoromethyl)sulfanyl]indolizin-2-yl)prop-2-yn-1-yl]amino}-N-[(2S)-2-hydroxypropyl]-3-methoxybenzamide] |  |  |  | < 10 nM |  |  |  |  |  |  |  |  | < 750 nM | 8000 to 10000 nM | < 750 nM | < 750 nM | > 90%
CNC(=O)c1ccc(OC)c(NCC#Cc2cc3c(N[C@@H]4CCN(C5COC5)C[C@@H]4F)cccn3c2SC(F)(F)F)c1 [Example 481, 3-{[3-(8-{[(3S,4R)-3-fluoro-1-(oxetan-3-yl)piperidin-4-yl]amino}-3-[(trifluoromethyl)sulfanyl]indolizin-2-yl)prop-2-yn-1-yl]amino}-4-methoxy-N-methylbenzamide] |  |  |  | < 10 nM |  |  |  |  |  |  |  |  | < 750 nM | 5000 to 8000 nM | < 750 nM | < 750 nM | > 90%
CNC(=O)c1ccc(OC2COC2)c(NCC#Cc2cc3c(N[C@@H]4CCN(C)C[C@@H]4F)cccn3c2SC(F)(F)F)c1 [Example 499] |  |  |  | < 10 nM |  |  |  |  |  |  |  |  | < 750 nM | 5000 to 8000 nM | < 750 nM | < 750 nM | > 90%
CNC(=O)c1ccc(OC)c(NCC#Cc2cc3c(N[C@@H]4CNC[C@@H]4F)nccn3c2SC(F)(F)F)n1 [Example 210] |  |  |  |  |  |  | 750 to 1500 nM | ≥ 10000 nM | 750 to 1500 nM | < 10 nM | 80 to 90% | 750 to 1500 nM |  |  |  |  | 
CC(C)(O)CNC(O)c1ccc(NCC#Cc2cc3c(N[C@@H]4CCNC[C@@H]4F)cccn3c2SC(F)(F)F)cc1 (stereo partly drawn) [Example 372] | < 750 nM | 8000 to 10000 nM | < 750 nM | < 10 nM | < 750 nM | > 90% |  |  |  |  |  |  |  |  |  |  | 
CNC(=O)c1ccc(NCC#Cc2cc3c(N[C@@H]4CCN(C)C[C@@H]4F)cccn3c2SC(F)(F)F)c(Cl)c1 [Example 466, 3-chloro-4-{[3-(8-{[(3S,4R)-3-fluoro-1-methylpiperidin-4-yl]amino}-3-[(trifluoromethyl)sulfanyl]indolizin-2-yl)prop-2-yn-1-yl]amino}-N-methylbenzamide] |  |  |  | < 10 nM |  |  |  |  |  |  |  |  | < 750 nM | ≥ 10000 nM | < 750 nM | < 750 nM | 80 to 90%
COc1ccc(C(=O)N[C@@H](C)[C@@H](C)O)cc1NCC#Cc1cc2c(N[C@@H]3CCN(C)C[C@@H]3F)cccn2c1SC(F)(F)F [Example 410] | < 750 nM | ≥ 10000 nM | < 750 nM | < 10 nM | < 750 nM | > 90% |  |  |  |  |  |  |  |  |  |  | 
CNC(=O)c1ccc(NCC#Cc2cn3c(N[C@@H]4CCN(C)C[C@@H]4F)cccc3c2SC(F)F)c(OC)c1 [Example 440] | < 750 nM | 8000 to 10000 nM | < 750 nM | < 10 nM | < 750 nM | > 90% |  |  |  |  |  |  |  |  |  |  | 
CNC(=O)c1cc(NCC#Cc2cc3c(N[C@H]4CCN(C)C[C@H]4F)cccn3c2SC(F)(F)F)c2nccn2c1 (stereo in doubt) [Example 503, 8-{[3-(8-{[(3R,4S)-3-fluoro-1-methylpiperidin-4-yl]amino}-3-[(trifluoromethyl)sulfanyl]indolizin-2-yl)prop-2-yn-1-yl]amino}-N-methylimidazo[1,2-a]pyridine-6-carboxamide] |  |  |  | < 10 nM |  |  |  |  |  |  |  |  | < 750 nM | 5000 to 8000 nM | < 750 nM | < 750 nM | > 90%
CNC(=O)c1ccc(NCC#Cc2cc3c(N[C@@H]4CCN(C)C[C@@H]4F)cccn3c2SC(F)(F)F)c(C(=O)NC)n1 [Example 495, 3-{[3-(8-{[(3S,4R)-3-fluoro-1-methylpiperidin-4-yl]amino}-3-[(trifluoromethyl)sulfanyl]indolizin-2-yl)prop-2-yn-1-yl]amino}-N2,N6-dimethylpyridine-2,6-dicarboxamide] |  |  |  | < 10 nM |  |  |  |  |  |  |  |  | < 750 nM | 5000 to 8000 nM | < 750 nM | < 750 nM | > 90%
COc1cc(P(C)(C)=O)ccc1NCC#Cc1cn2c(N[C@@H]3CCN(C)C[C@@H]3F)cccc2c1SC(F)(F)F [Example 378] | < 750 nM | ≥ 10000 nM | < 750 nM | < 10 nM | < 750 nM | 80 to 90% |  |  |  |  |  |  |  |  |  |  | 
COc1cc([S@@+](C)[O-])ccc1NCC#Cc1cc2c(N[C@@H]3CCN(C)C[C@@H]3F)cccn2c1SC(F)(F)F [Example 423] | < 750 nM | 8000 to 10000 nM | < 750 nM | < 10 nM | < 750 nM | > 90% |  |  |  |  |  |  |  |  |  |  | 
CNC(=O)c1ccc(NCC#Cc2cc3c(N[C@@H]4CN(C)C[C@@H]4F)cccn3c2SC(F)(F)F)c(OC)c1 [Example 386] | < 750 nM | ≥ 10000 nM | < 750 nM | < 10 nM | < 750 nM | > 90% |  |  |  |  |  |  |  |  |  |  | 
CNC(=O)c1ccc(NCC#Cc2cc3c(N[C@@H]4CCN(C)C[C@@H]4F)cccn3c2SC(F)(F)F)c(OCF)c1 [Example 436, 4-{[3-(8-{[(3S,4R)-3-fluoro-1-methylpiperidin-4-yl]amino}-3-[(trifluoromethyl)sulfanyl]indolizin-2-yl)prop-2-yn-1-yl]amino}-3-(fluoromethoxy)-N-methylbenzamide] | < 750 nM | ≥ 10000 nM | < 750 nM | < 10 nM | < 750 nM | > 90% |  |  |  |  |  |  |  |  |  |  | 
CNC(=O)c1cc(NCC#Cc2nc3c(N[C@@H]4CCN(C)C[C@@H]4F)cccn3c2SC(F)(F)F)c(OC)nn1 [Example 259] | < 750 nM | ≥ 10000 nM | < 750 nM | < 10 nM | < 750 nM | > 90% |  |  |  |  |  |  |  |  |  |  | 
CN1CC[C@@H](Nc2cccn3c(SC(F)(F)F)c(C#CCNc4ccc(P(C)(C)=O)c5ccoc45)cc23)[C@@H](F)C1 [Example 452] | < 750 nM | < 5000 nM | < 750 nM | < 10 nM | < 750 nM | > 90% |  |  |  |  |  |  |  |  |  |  | 
O=C(N[C@H]1C[C@@H](O)C1)c1ccc(NCC#Cc2cc3c(N[C@@H]4CCNC[C@@H]4F)cccn3c2SC(F)(F)F)cc1 [Example 391] | < 750 nM | ≥ 10000 nM | < 750 nM | < 10 nM | < 750 nM | 80 to 90% |  |  |  |  |  |  |  |  |  |  | 
